The values that follow come from US5502061A, “Peptidyl substituted benzamides and naphthamies” (Eli Lilly and Company, priority 1994, dated 1996).

Some results are limits rather than exact numbers.

The target in one assay is T1, HIV-1 protease (Human immunodeficiency virus type 1 group M subtype B, UniProt P04585).
T1 construct: made in house; host or cells: E. coli K12 L507/pHP10D (NRRL B-18560)
Briefly: Fluorescence HIV-1 Protease Inhibitor Assay. The format is biochemical. As to conditions: concentration giving 25% inhibition; the concentration of the compound was not increased above the stated concentration; normalized to positive control. The method, then:
E. Fluorescence HIV-1 Protease Inhibitor Assay
The following buffers and solutions are used in the Fluorescence HIV-1 Protease Inhibitor Assay:
To each well of a round bottom, 96-well plate is added 20 μL of the Enzyme Solution followed by 10 μL of the compound to be evaluated in a 20% aqueous dimethylsulfoxide solution. Purified HIV-1 protease was obtained as described above. […] The solutions are then incubated for 16 hours at room temperature and then each well is diluted with 150 μL of MES-ALB buffer.
To each well of a second round bottom, 96-well Pandex plate is added 25 uL of the Avidin Coated Beads Solution. Then, to each well is added 25 μL of the diluted incubation solutions, prepared above. The solutions are mixed thoroughly and the plates are loaded into a Pandex® machine, washed, evacuated and read. Sample detection was performed by excitation at 485 nm, reading the resulting epifluorescence at 535 nm.
Turning to `CC(C)(C)NC(=O)c1ccccc1CC(O)C(Cc1ccccc1)NC(=O)C(CC(N)=O)NC(=O)C(NC(=O)OC(C)(C)C)c1ccccc1` (stereo not drawn) [Example 17, 2R-(2R*, 3S*, 6S*, 9R*)!-N-t-butyl-2-2-hydroxy-3-phenylmethyl-4,7-diaza 5,8-dioxo-6-(carbamoylmethyl)-9-N(t-butoxycarbonyl)amino-9-phenyl!nonyl benzamide], the “Fluorescence Assay IC25” value is 100 ng/mL.

Still in this assay, the particulars now being: concentration giving 43% inhibition; the concentration of the compound was not increased above the stated concentration; normalized to positive control.
For the compound `CC(C)(C)NC(=O)c1ccccc1CC(O)C(Cc1ccccc1)NC(=O)C(N)CC(N)=O` (stereo not drawn) [Example 5B, 2R-(2R*, 3S*, 6S*)!-N-t-Butyl-2-2-hydroxy-3-phenylmethyl-4-aza-5-oxo-6-amino-7-carbamoyl!heptyl benzamide], the “Fluorescence Assay IC43” value turned out to be 1000 ng/mL.

The same assay, now with this note: purified HIV-1 protease, biotin/FITC-labelled peptide substrate, Pandex read-out; all values normalized to the positive control (= 1.0).
As for “2R- (2R*, 3S*, 6S*, 9R*)!-N-t-Butyl-2- 2-hydroxy-3-phenylmethyl-4,7-diaza -2,8-dioxo-6-(1-methylethyl)-9-amino-10-naphth-1-yl!benzamide [Example 4]”, the “Fluorescence Assay IC50” value is given as 2.48 ng/mL. As for “2R-(3R*,3S*,6S*,9R*)!-N-t-Butyl-2- 2-hydroxy-3-phenylmethyl-4,7-diaza -5,8,dioxo-6-(carbamoylmethyl)-9-amino-10-naphth-1-yl!decyl benzamide [Example 8]”, the “Fluorescence Assay IC50” value amounted to 2.28 ng/mL. Same read-out and setting: next, `CC(C)C(NC(=O)C(Cc1cccc2ccccc12)NC(=O)OC(C)(C)C)C(=O)NC(Cc1ccccc1)C(O)Cc1ccccc1C(=O)NC(C)(C)C` (stereo not drawn) [Example 1C, 2R-(2R*, 3S*, 6S*, 9S*)!-N-t-Butyl-2-2-hydroxy-3-phenylmethyl-4,7-diaza-5,8-dioxo-6-(1-methylethyl)-9-N(t-butoxycarbonyl)amino-10-naphth-1-yl!decyl benzamide]: 1.44 ng/mL. The same measure, in the same setting: the value for `CC(C)C(NC(=O)C(Cc1cccc2ccccc12)NC(=O)OC(C)(C)C)C(=O)NC(Cc1ccccc1)C(O)Cc1ccccc1C(=O)NC(C)(C)C` (stereo not drawn) [Example 2, 2R-(2R*,3S*,6S*,9R*)!-N-t-Butyl-2-2-hydroxy-3-phenylmethyl-4,7-diaza-5,8-dioxo-6-(1-methylethyl)-9-N(t-butoxycarbonyl)amino-10-naphth-1-yl!decyl benzamide] was 3.13 ng/mL.

`CC(C)C(NC(=O)C(N)Cc1cccc2ccccc12)C(=O)NC(Cc1ccccc1)C(O)Cc1ccccc1C(=O)NC(C)(C)C` (stereo not drawn) [Example 3, 2R-(2R*, 3S*, 6S*, 9S*)!-N-t-Butyl-2-2-hydroxy-3-phenylmethyl-5,8-dioxo-6-(1-methylethyl)-9-amino-10-naphth-1-yl!decyl benzamide]: the “Fluorescence Assay IC50” value amounted to 0.48 ng/mL. Still for that read-out and setting: the value for `CC(C)(C)NC(=O)c1ccccc1CC(O)C(Cc1ccccc1)NC(=O)C(CC(N)=O)NC(=O)C(Cc1cccc2ccccc12)NC(=O)OC(C)(C)C` (stereo not drawn) [Example 5C, 2R-(2R*,3S*, 6S*,9R*)!-N-t-Butyl-2-2-hydroxy-3-phenylmethyl-4,7-diaza-5,8-dioxo-6-(carbamoylmethyl)-9-N(t-butoxycarbonyl))amino-10-naphth-1-yl!decyl benzamide] was 0.53 ng/mL; that for `CC(C)(C)NC(=O)c1ccccc1CC(O)C(Cc1ccccc1)NC(=O)C(CC(N)=O)NC(=O)C(Cc1cccc2ccccc12)NC(=O)OC(C)(C)C` (stereo not drawn) [Example 6, 2R-(2R*,3S*,6S*,9S*)!-N-t-Butyl-2-2-hydroxy-3-phenylmethyl-4,7-diaza-5,8-dioxo-6-(carbamoylmethyl)-9-N(t-butoxycarbonyl)amino-10-naphth-1-yl!decyl benzamide] was 2.4 ng/mL. Same read-out and setting: next, `CC(C)(C)NC(=O)c1ccccc1CC(O)C(Cc1ccccc1)NC(=O)C(CC(N)=O)NC(=O)C(N)Cc1cccc2ccccc12` (stereo not drawn) [Example 7, 2R-(2R*, 3S*, 6S*, 9S*)!-N-t-Butyl-2-2-hydroxy-3-phenylmethyl-4,7-diaza-5,8-dioxo-6-(carbamoylmethyl)-9-amino-10-naphth-1-yl!decyl benzamide]: 0.95 ng/mL. For the compound `CC(C)(C)NC(=O)c1ccccc1CC(O)C(Cc1ccccc1)NC(=O)C(CC(N)=O)NC(=O)C(Cc1ccccc1)NC(=O)OC(C)(C)C` (stereo not drawn) [Example 9, 2R-(2R*, 3S*, 6S*, 9S*)!-N-t-Butyl-2-2-hydroxy-3-phenylmethyl-4,7-diaza-5,8-dioxo-6-(carbamoylmethyl)-9-N(t-butoxycarbonyl)amino-10-phenyl!decyl benzamide], the “Fluorescence Assay IC50” value was 1.76 ng/mL.

As to `CC(C)(C)NC(=O)c1ccccc1CC(O)C(Cc1ccccc1)NC(=O)C(CC(N)=O)NC(=O)C(Cc1ccccc1)NC(=O)OC(C)(C)C` (stereo not drawn) [Example 10, 2R-(2R*, 3S*, 6S*, 9R* )!-N-t-Butyl-2-2-hydroxy-3-phenylmethyl-4,7-diaza-5,8-dioxo-6-(carbamoylmethyl)-9-N(t-butoxycarbonyl)amino-10-phenyl!decyl benzamide], the “Fluorescence Assay IC50” value is 1.67 ng/mL. Same read-out and setting: the value for `CC(C)(C)NC(=O)c1ccccc1CC(O)C(Cc1ccccc1)NC(=O)C(Cc1c[nH]cn1)NC(=O)C(Cc1cccc2ccccc12)NC(=O)OC(C)(C)C` (stereo not drawn) [Example 11C, 2R-(2R*,3S*,6S*,9S*)!-N-t-Butyl-2-2-hydroxy-3-phenylmethyl-4,7-diaza-5,8-dioxo-6-(imidazol-4-ylmethyl)-9-N(t-butoxycarbonyl)amino-10-naphth-1-yl!decyl benzamide] was 7.78 ng/mL. On to `CC(C)(C)NC(=O)c1ccccc1CC(O)C(Cc1ccccc1)NC(=O)C(Cc1c[nH]cn1)NC(=O)C(Cc1cccc2ccccc12)NC(=O)OC(C)(C)C` (stereo not drawn) [Example 12, 2R-(2R*,3S*,6S*,9R*)!-N-t-Butyl-2-2-hydroxy-3-phenylmethyl-4,7-diaza-5,8-dioxo-6-(imidazol-4-ylmethyl)-9-N(t-butoxycarbonyl)amino-10-naphth-1-yl!decyl benzamide], for which the “Fluorescence Assay IC50” value was found to be 1.6 ng/mL. As for `CC(C)(C)NC(=O)c1ccccc1CC(O)C(Cc1ccccc1)NC(=O)C(CC(N)=O)NC(=O)C(Cc1cccc2ccccc12)NC(=O)OC(C)(C)C` (stereo not drawn) [Example 13, 2R-(2R*,3S*, 6R*,9S*)!-N-t-Butyl-2-2-hydroxy-3-phenylmethyl-4,7-diaza-5,8-dioxo-6-(carbamoylmethyl)-9-N(t-butoxycarbonyl)amino-10-naphth-1-yl!decyl benzamide], the “Fluorescence Assay IC50” value is listed as above 10000 ng/mL. For `CC(C)(C)NC(=O)c1ccccc1CC(O)C(Cc1ccccc1)NC(=O)C(CC(N)=O)NC(=O)C(Cc1c[nH]c2ccccc12)NC(=O)OC(C)(C)C` (stereo not drawn) [Example 14, 2R-(2R*, 3S*, 6S*, 9S*)!-N-t-Butyl-2-2-hydroxy-3-phenylmethyl-4,7-diaza-5,8-dioxo-6-(carbamoylmethyl)-9-N(t-butoxycarbonyl)amino-10-indol-3-yl!decyl benzamide], the “Fluorescence Assay IC50” value is listed as 0.93 ng/mL. For `CC(C)(C)NC(=O)c1cccc(CC(O)C(Cc2ccccc2)NC(=O)C(CC(N)=O)NC(=O)C(Cc2c[nH]c3ccccc23)NC(=O)OC(C)(C)C)c1` (stereo not drawn) [Example 15, 2R-(2R*, 3S*, 6S*, 9R*)!-N-t-Butyl-3-2-hydroxy-3-phenylmethyl-4,7-diaza-5,8-dioxo-6-(carbamoylmethyl)-9-N(t-butoxycarbonyl)amino-10-indol-3-yl!decyl benzamide], the “Fluorescence Assay IC50” value turned out to be 1.05 ng/mL.

`CC(C)(C)NC(=O)c1ccccc1CC(O)C(Cc1ccccc1)NC(=O)C(CC(N)=O)NC(=O)C(NC(=O)OC(C)(C)C)c1ccccc1` (stereo not drawn) [Example 16, 2R-(2R*, 3S*, 6S*, 9S*)!-N-t-Butyl-2-2-hydroxy-3-phenylmethyl-4,7-diaza-5,8-dioxo-6-(carbamoylmethyl)-9-N(t-butoxycarbonyl)amino-9-phenyl!nonyl benzamide]: the “Fluorescence Assay IC50” value stood at 106 ng/mL.
